Reference: PMC3814616, “BRAF inhibitors suppress apoptosis through off-target inhibition of JNK signaling” (eLife, 2013)
Read-outs that look alike come from different tables or passages of the source.

Assays:
MAP3K1 = target: T1, MAP3K1 (Homo sapiens, UniProt Q13233); experiment: Quantitative competitive binding assay (KINOMEscan); details: for remaining binding at 0.05 µM: read-out: Percent control (50 nM); for remaining binding at 0.2 µM: read-out: Percent control (200 nM); for remaining binding at 1 µM: read-out: Percent control (1000 nM); for remaining binding at 10 µM: read-out: Percent control (10 μM)
T1 construct: purchased KINOMEscan (DiscoveRx), San Diego, CA
T1 sequence (Q13233 whole entry): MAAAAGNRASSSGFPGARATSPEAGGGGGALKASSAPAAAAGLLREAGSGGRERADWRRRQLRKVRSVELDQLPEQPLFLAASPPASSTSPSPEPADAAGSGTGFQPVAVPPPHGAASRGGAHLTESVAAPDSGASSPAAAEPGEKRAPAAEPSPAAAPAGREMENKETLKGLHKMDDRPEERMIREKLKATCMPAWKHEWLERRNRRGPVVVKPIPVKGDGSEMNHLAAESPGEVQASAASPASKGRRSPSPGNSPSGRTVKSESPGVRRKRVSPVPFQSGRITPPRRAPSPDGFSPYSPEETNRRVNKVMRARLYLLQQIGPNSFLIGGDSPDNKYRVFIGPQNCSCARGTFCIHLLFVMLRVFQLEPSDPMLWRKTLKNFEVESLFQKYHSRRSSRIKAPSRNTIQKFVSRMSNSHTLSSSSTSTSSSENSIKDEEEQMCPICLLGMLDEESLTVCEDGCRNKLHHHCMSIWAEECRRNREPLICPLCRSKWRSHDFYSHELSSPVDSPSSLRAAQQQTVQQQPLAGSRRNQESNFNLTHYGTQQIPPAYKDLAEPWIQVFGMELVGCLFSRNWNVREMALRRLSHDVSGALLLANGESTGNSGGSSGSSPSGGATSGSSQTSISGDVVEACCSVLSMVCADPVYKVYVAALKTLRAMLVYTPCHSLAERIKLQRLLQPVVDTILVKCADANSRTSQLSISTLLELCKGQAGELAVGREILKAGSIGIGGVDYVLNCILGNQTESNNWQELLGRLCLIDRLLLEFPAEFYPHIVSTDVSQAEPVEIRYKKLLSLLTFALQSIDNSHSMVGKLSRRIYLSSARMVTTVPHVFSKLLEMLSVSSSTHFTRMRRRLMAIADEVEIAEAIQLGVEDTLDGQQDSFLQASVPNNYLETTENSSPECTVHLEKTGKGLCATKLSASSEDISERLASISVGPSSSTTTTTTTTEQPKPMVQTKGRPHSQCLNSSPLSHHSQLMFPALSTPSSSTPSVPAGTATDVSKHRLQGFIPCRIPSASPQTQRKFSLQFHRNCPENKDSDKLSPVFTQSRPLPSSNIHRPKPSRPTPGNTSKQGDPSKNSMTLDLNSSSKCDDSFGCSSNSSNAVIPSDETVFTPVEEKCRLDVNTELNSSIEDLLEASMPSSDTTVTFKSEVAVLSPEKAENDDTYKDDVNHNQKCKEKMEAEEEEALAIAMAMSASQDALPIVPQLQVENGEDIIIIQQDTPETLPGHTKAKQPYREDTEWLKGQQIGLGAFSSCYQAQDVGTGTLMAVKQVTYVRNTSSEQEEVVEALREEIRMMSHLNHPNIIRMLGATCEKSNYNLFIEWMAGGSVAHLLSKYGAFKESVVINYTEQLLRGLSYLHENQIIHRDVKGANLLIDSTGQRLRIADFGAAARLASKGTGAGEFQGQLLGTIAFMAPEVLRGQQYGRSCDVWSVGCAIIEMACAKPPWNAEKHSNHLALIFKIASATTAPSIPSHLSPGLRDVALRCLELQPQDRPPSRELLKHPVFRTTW

MINK (MINK1) = target: T2, MINK (MINK1) (Homo sapiens, UniProt Q8N4C8); experiment: as above; details: for remaining binding at 0.05 µM: read-out: Percent control (50 nM); for remaining binding at 0.2 µM: read-out: Percent control (200 nM); for remaining binding at 1 µM: read-out: Percent control (1000 nM); for remaining binding at 10 µM: read-out: Percent control (10 μM)
T2 construct: purchased KINOMEscan (DiscoveRx), San Diego, CA
T2 sequence (Q8N4C8 whole entry): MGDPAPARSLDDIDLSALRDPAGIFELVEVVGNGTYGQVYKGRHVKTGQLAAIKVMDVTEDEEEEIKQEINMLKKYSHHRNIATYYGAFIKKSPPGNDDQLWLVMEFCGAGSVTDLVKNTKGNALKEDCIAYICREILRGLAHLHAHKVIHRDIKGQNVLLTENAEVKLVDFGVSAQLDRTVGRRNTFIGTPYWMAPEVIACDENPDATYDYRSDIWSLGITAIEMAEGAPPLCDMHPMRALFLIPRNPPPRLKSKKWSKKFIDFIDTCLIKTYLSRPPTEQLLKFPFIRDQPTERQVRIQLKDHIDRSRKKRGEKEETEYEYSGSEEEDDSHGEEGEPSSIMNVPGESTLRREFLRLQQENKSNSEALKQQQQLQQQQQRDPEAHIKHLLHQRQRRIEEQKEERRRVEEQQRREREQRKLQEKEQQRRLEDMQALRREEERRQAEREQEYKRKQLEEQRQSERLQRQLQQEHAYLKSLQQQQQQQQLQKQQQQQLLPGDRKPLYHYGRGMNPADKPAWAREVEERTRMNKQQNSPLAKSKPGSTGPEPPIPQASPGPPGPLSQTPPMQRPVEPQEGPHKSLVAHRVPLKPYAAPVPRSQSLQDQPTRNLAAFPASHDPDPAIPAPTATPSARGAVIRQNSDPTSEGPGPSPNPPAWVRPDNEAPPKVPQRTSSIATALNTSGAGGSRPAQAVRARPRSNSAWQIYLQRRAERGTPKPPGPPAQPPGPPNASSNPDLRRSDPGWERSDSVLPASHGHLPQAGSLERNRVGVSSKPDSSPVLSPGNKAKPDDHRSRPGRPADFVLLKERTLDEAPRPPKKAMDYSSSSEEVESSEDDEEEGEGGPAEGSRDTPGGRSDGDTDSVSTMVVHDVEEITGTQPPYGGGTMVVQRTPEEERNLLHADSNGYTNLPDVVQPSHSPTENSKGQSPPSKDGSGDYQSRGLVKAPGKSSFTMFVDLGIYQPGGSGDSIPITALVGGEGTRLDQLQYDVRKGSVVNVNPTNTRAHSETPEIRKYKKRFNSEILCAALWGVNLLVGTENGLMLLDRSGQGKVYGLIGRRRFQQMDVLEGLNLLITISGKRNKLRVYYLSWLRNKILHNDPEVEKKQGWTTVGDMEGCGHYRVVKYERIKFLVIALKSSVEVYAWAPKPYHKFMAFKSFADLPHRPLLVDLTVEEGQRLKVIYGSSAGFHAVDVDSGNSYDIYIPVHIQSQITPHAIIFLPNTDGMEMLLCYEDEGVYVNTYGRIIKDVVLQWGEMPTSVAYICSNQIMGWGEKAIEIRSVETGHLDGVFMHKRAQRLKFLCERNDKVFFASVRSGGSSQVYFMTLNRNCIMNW

MKK7 (MAP2K7) = target: T3, MKK7 (MAP2K7) (Homo sapiens, UniProt O14733); experiment: as above; details: for remaining binding at 0.05 µM: read-out: Percent control (50 nM); for remaining binding at 0.2 µM: read-out: Percent control (200 nM); for remaining binding at 1 µM: read-out: Percent control (1000 nM); for remaining binding at 10 µM: read-out: Percent control (10 μM)
T3 construct: purchased KINOMEscan (DiscoveRx), San Diego, CA
T3 sequence (O14733 1-419): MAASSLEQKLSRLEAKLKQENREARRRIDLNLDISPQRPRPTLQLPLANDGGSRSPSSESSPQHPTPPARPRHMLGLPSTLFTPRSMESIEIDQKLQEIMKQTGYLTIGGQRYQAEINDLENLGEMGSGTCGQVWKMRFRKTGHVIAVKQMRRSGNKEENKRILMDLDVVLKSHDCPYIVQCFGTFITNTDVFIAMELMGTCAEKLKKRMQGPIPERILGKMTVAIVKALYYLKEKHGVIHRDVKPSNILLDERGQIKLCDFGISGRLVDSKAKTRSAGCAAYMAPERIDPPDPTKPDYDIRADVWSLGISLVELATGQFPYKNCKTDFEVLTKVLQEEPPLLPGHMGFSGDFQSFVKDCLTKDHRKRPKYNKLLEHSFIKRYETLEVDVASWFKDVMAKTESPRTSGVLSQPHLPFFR

TAK1 (MAP3K7) = target: T4, TAK1 (MAP3K7) (Homo sapiens, UniProt O43318); experiment: as above; details: for remaining binding at 0.05 µM: read-out: Percent control (50 nM); for remaining binding at 0.2 µM: read-out: Percent control (200 nM); for remaining binding at 1 µM: read-out: Percent control (1000 nM); for remaining binding at 10 µM: read-out: Percent control (10 μM)
T4 construct: purchased KINOMEscan (DiscoveRx), San Diego, CA
T4 sequence (O43318 whole entry): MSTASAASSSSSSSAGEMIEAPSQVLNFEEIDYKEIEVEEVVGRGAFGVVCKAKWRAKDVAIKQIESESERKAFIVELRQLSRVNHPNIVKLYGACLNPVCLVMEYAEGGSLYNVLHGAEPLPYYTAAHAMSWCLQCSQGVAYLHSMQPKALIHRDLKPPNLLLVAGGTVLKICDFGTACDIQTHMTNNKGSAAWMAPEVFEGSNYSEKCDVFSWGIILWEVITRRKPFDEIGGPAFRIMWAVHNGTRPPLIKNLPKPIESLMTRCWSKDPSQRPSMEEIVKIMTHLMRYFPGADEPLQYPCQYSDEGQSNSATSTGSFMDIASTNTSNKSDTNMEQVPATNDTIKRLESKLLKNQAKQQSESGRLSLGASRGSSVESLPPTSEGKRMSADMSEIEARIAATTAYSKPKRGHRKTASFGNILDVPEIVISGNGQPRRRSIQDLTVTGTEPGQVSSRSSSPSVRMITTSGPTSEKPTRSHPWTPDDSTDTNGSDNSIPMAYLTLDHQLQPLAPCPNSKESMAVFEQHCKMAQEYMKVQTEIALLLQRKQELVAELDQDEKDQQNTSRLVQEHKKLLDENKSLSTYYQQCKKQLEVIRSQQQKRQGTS

TAOK2 = target: T5, TAOK2 (Homo sapiens, UniProt Q9UL54); experiment: as above; details: for remaining binding at 0.05 µM: read-out: Percent control (50 nM); for remaining binding at 0.2 µM: read-out: Percent control (200 nM); for remaining binding at 1 µM: read-out: Percent control (1000 nM); for remaining binding at 10 µM: read-out: Percent control (10 μM)
T5 construct: purchased KINOMEscan (DiscoveRx), San Diego, CA
T5 sequence (Q9UL54 1-1235): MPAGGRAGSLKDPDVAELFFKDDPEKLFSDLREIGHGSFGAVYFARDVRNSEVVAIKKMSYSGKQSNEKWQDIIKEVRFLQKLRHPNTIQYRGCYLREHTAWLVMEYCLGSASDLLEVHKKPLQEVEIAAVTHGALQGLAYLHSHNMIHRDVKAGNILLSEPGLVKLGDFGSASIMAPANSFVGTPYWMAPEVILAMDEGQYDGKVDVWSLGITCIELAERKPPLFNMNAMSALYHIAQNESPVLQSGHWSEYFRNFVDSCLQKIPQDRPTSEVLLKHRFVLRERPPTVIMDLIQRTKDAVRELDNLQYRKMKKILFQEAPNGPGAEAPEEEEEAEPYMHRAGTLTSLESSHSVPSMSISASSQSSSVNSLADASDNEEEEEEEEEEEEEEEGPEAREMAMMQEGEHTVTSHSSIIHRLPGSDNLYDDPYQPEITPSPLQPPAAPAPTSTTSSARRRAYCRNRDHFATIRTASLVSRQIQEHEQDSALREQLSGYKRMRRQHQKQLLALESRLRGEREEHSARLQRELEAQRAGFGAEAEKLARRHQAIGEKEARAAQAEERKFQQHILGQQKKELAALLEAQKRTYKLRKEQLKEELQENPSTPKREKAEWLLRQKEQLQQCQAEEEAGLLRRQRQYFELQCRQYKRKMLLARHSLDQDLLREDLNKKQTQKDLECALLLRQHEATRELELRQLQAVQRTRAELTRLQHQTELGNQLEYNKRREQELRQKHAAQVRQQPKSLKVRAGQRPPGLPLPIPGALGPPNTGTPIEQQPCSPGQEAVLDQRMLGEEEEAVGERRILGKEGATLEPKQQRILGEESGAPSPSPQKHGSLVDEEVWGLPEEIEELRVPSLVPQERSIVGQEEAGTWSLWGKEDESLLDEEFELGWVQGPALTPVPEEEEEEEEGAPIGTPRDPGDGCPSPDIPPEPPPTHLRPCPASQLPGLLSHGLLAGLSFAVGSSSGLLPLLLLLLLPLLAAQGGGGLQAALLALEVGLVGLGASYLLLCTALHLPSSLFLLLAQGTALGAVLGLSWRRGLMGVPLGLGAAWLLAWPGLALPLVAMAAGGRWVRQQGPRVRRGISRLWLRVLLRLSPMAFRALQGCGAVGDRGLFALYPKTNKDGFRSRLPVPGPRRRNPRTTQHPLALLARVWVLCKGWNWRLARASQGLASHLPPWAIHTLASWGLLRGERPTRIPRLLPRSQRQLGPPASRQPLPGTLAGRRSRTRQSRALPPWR

TNIK = target: T6, TNIK (Homo sapiens, UniProt Q9UKE5); experiment: as above; details: for remaining binding at 0.05 µM: read-out: Percent control (50 nM); for remaining binding at 0.2 µM: read-out: Percent control (200 nM); for remaining binding at 1 µM: read-out: Percent control (1000 nM); for remaining binding at 10 µM: read-out: Percent control (10 μM)
T6 construct: purchased KINOMEscan (DiscoveRx), San Diego, CA
T6 sequence (Q9UKE5 whole entry): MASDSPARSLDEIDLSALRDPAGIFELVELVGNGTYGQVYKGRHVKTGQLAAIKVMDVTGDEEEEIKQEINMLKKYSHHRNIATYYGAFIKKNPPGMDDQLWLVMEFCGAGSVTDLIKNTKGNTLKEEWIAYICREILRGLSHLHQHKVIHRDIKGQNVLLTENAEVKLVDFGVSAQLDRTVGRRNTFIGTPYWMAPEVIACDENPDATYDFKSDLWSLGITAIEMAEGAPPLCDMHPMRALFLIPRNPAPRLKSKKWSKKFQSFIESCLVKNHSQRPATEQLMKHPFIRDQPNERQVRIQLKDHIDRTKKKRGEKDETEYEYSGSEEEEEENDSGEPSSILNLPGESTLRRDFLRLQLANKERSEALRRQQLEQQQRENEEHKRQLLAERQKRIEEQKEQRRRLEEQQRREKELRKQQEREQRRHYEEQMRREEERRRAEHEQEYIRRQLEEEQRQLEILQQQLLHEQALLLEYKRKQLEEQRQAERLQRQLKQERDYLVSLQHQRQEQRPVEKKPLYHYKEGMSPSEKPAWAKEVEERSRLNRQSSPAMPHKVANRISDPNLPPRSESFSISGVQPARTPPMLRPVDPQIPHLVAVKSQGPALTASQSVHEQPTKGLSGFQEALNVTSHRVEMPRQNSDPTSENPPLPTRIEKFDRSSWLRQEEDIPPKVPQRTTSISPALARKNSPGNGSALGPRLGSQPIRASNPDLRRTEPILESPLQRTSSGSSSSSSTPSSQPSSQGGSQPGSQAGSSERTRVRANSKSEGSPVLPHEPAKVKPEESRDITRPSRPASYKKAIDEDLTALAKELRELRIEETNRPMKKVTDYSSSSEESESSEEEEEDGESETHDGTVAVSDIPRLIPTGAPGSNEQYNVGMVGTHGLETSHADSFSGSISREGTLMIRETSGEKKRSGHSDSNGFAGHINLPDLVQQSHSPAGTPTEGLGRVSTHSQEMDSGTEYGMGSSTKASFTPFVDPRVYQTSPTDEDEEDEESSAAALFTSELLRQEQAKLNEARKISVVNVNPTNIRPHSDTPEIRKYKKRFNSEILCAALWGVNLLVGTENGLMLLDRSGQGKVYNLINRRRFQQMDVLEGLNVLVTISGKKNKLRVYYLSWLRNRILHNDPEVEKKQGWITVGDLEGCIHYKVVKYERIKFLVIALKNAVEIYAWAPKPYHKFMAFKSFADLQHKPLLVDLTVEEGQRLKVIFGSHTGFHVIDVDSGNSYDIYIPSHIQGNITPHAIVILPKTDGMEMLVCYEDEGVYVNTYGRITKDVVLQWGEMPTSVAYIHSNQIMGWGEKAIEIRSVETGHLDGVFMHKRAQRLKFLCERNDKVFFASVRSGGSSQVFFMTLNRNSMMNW

NOXA = experiment: Western blot, UV-induced NOXA expression; type: cell-based, human; details: 1 μM
MLK1 (MAP3K9) = target: T7, MLK1 (MAP3K9) (Homo sapiens, UniProt P80192); details: read-out: Published biochemical IC50, cited from earlier work
T7 construct: purchased KINOMEscan (DiscoveRx), San Diego, CA

[1] = estimated Kd, averaged pointwise estimates, transformed Hill equation, read-out: Calculated estimate of IC50

Question: With CCCS(=O)(=O)Nc1ccc(F)c(C(=O)c2c[nH]c3ncc(Cl)cc23)c1F [PLX4720] as the molecule, how does the remaining binding at 0.05 µM (MAP3K1) read?
Answer: 96%

Question: And the remaining binding at 0.2 µM (MAP3K1)?
Answer: 100%

Question: And the remaining binding at 1 µM (MAP3K1)?
Answer: 92%

Question: What about the remaining binding at 10 µM (MAP3K1) of the same molecule?
Answer: 84%

Question: What about the remaining binding at 0.05 µM (MINK (MINK1)) of the same molecule?
Answer: 89%

Question: What about the remaining binding at 0.2 µM (MINK (MINK1)) of the same molecule?
Answer: 100%

Question: And the remaining binding at 1 µM (MINK (MINK1))?
Answer: 98%

Question: And the remaining binding at 10 µM (MINK (MINK1))?
Answer: 55%

Question: What about the remaining binding at 0.05 µM (MKK7 (MAP2K7)) of the same molecule?
Answer: 100%

Question: And the remaining binding at 0.2 µM (MKK7 (MAP2K7))?
Answer: 100%

Question: And the remaining binding at 1 µM (MKK7 (MAP2K7))?
Answer: 100%

Question: And the remaining binding at 10 µM (MKK7 (MAP2K7))?
Answer: 84%

Question: And the remaining binding at 0.05 µM (TAK1 (MAP3K7))?
Answer: 90%

Question: And the remaining binding at 0.2 µM (TAK1 (MAP3K7))?
Answer: 88%

Question: What about the remaining binding at 1 µM (TAK1 (MAP3K7)) of the same molecule?
Answer: 85%

Question: What about the remaining binding at 10 µM (TAK1 (MAP3K7)) of the same molecule?
Answer: 49%

Question: What about the remaining binding at 0.05 µM (TAOK2) of the same molecule?
Answer: 92%

Question: What about the remaining binding at 0.2 µM (TAOK2) of the same molecule?
Answer: 100%

Question: And the remaining binding at 1 µM (TAOK2)?
Answer: 93%

Question: And the remaining binding at 10 µM (TAOK2)?
Answer: 51%

Question: And the remaining binding at 0.05 µM (TNIK)?
Answer: 97%

Question: What about the remaining binding at 0.2 µM (TNIK) of the same molecule?
Answer: 89%

Question: What about the remaining binding at 1 µM (TNIK) of the same molecule?
Answer: 79%

Question: What about the remaining binding at 10 µM (TNIK) of the same molecule?
Answer: 24%

Question: And the “UV-induced NOXA expression” value (NOXA; cSCC and HaCaT cell lines)?
Answer: suppressed

Question: What about the IC50 (MLK1 (MAP3K9); ref Tsai et al., 2008) of the same molecule?
Answer: > 5 µM

Question: With CCCS(=O)(=O)Nc1ccc(F)c(C(=O)c2c[nH]c3ncc(-c4ccc(Cl)cc4)cc23)c1F [vemurafenib] as the molecule, how does the remaining binding at 0.05 µM (MAP3K1) read?
Answer: 98%

Question: What about the remaining binding at 0.2 µM (MAP3K1) of the same molecule?
Answer: 84%

Question: What about the remaining binding at 1 µM (MAP3K1) of the same molecule?
Answer: 89%

Question: And the remaining binding at 10 µM (MAP3K1)?
Answer: 81%

Question: What about the IC50 (MINK (MINK1); [1]) of the same molecule?
Answer: 14.8 µM

Question: What about the remaining binding at 0.05 µM (MINK (MINK1)) of the same molecule?
Answer: 100%

Question: What about the remaining binding at 0.2 µM (MINK (MINK1)) of the same molecule?
Answer: 100%

Question: And the remaining binding at 1 µM (MINK (MINK1))?
Answer: 91%

Question: What about the remaining binding at 10 µM (MINK (MINK1)) of the same molecule?
Answer: 66%

Question: What about the remaining binding at 0.05 µM (MKK7 (MAP2K7)) of the same molecule?
Answer: 97%

Question: What about the remaining binding at 0.2 µM (MKK7 (MAP2K7)) of the same molecule?
Answer: 95%

Question: And the remaining binding at 1 µM (MKK7 (MAP2K7))?
Answer: 94%

Question: And the remaining binding at 10 µM (MKK7 (MAP2K7))?
Answer: 85%

Question: And the remaining binding at 0.05 µM (TAK1 (MAP3K7))?
Answer: 93%

Question: And the remaining binding at 0.2 µM (TAK1 (MAP3K7))?
Answer: 88%

Question: And the remaining binding at 1 µM (TAK1 (MAP3K7))?
Answer: 86%

Question: What about the remaining binding at 10 µM (TAK1 (MAP3K7)) of the same molecule?
Answer: 88%

Question: And the IC50 (TAOK2; [1])?
Answer: 11.8 µM

Question: What about the remaining binding at 0.05 µM (TAOK2) of the same molecule?
Answer: 98%

Question: What about the remaining binding at 0.2 µM (TAOK2) of the same molecule?
Answer: 92%

Question: What about the remaining binding at 1 µM (TAOK2) of the same molecule?
Answer: 95%

Question: What about the remaining binding at 10 µM (TAOK2) of the same molecule?
Answer: 70%

Question: What about the remaining binding at 0.05 µM (TNIK) of the same molecule?
Answer: 95%

Question: What about the remaining binding at 0.2 µM (TNIK) of the same molecule?
Answer: 94%

Question: And the remaining binding at 1 µM (TNIK)?
Answer: 66%

Question: And the remaining binding at 10 µM (TNIK)?
Answer: 11%

Question: And the “NOXA induction at 24 hr post-UV irradiation” value (NOXA; NHEK)?
Answer: diminished

Question: And the IC50 (MLK1 (MAP3K9); ref Bollag et al., 2010)?
Answer: > 1 µM
